Measurements from patent publication US20100267561A1, “HERBICIDAL PYRIDAZINONE DERIVATIVES” (priority 2007, published 2010).

What was measured:
Assay type in all cases: in vivo
corn (Zea mays) = experiment: Test B pre-/postemergence plant response; details: for Corn plant response rating: 8 g ai/ha
Summary of the method: (§1)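 Visual scoring from 0 (no effect) to 100 (complete control) against untreated controls was done 13 to 15 days after greenhouse treatment. Chemicals were formulated in a surfactant-containing non-phytotoxic solvent and applied to soil preemergence or to 1- to 4-leaf (2-18 cm) plants postemergence.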

[1] = tested on: large crabgrass (Digitaria sanguinalis); experiment: Test B pre-/postemergence plant response; details: for Crabgrass, Large plant response rating: 8 g ai/ha
Summary of the method: as §1

[2] = tested on: eastern black (E.B.) nightshade (Solanum ptycanthum); experiment: Test B pre-/postemergence plant response; details: Preemergence
Summary of the method: as §1

[3] = tested on: pigweed (Amaranthus retroflexus); experiment: Test B pre-/postemergence plant response; details: for Pigweed plant response rating: 8 g ai/ha
Summary of the method: as §1

[4] = tested on: woolly cupgrass (Eriochloa villosa); experiment: Test B pre-/postemergence plant response; details: for Cupgrass, Woolly plant response rating: 8 g ai/ha
Summary of the method: as §1

[5] = tested on: giant foxtail (Setaria faberii); experiment: Test B pre-/postemergence plant response; details: for Foxtail, Giant plant response rating: 8 g ai/ha
Summary of the method: as §1

[6] = tested on: green foxtail (Setaria viridis); experiment: Test B pre-/postemergence plant response; details: for Foxtail, Green plant response rating: 8 g ai/ha
Summary of the method: as §1

wild oat (Avena fatua) = experiment: Test B pre-/postemergence plant response; details: for Oat, Wild plant response rating: 8 g ai/ha
Summary of the method: as §1

[7] = tested on: Russian thistle (Salsola iberica); experiment: Test B pre-/postemergence plant response; details: Preemergence
Summary of the method: as §1

[8] = tested on: downy bromegrass (Bromus tectorum); experiment: Test B pre-/postemergence plant response; details: for Bromegrass, Downy plant response rating: 8 g ai/ha
Summary of the method: as §1

[9] = tested on: umbrella sedge (Cyperus difformis); experiment: Test B flooded paddy test plant response
Summary of the method: (§2)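 Rice, umbrella sedge, ducksalad and barnyardgrass at 2-leaf stage; pots flooded to 3 cm, compounds applied into paddy water, depth held throughout. Greenhouse 13 to 15 days, then visual rating vs untreated controls on 0–100 scale (0 no effect, 100 complete control); dash means no test result.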

[10] = tested on: barnyardgrass (Echinochloa crus-galli); experiment: Test B flooded paddy test plant response
Summary of the method: as §2

rice (Oryza sativa) = experiment: Test B flooded paddy test plant response
Summary of the method: as §2

[11] = tested on: ducksalad (Heteranthera limosa); experiment: Test B flooded paddy test plant response
Summary of the method: as §2

[12] = Postemergence, 16 g ai/ha, scale 0 to 100
[13] = Postemergence, 31 g ai/ha, scale 0 to 100
[14] = Postemergence, 62 g ai/ha, scale 0 to 100, 0 no effect, 100 complete control
[15] = Preemergence, 16 g ai/ha, scale 0 to 100 (0 no effect, 100 complete control)
[16] = Preemergence, 31 g ai/ha, 0 to 100 scale, 0 no effect, 100 complete control
[17] = Preemergence, 62 g ai/ha, scale 0 to 100
[18] = 16 g ai/ha, scale 0 to 100 (0 no effect, 100 complete control)
[19] = 31 g ai/ha, scale 0 to 100 (0 no effect, 100 complete control)
[20] = Preemergence, 31 g ai/ha, scale 0 to 100 (0 no effect, 100 complete control)
[21] = Flood (flooded paddy test), 62 g ai/ha, scale 0 to 100, 0 no effect, 100 complete control
[22] = Flood (flooded paddy test), 125 g ai/ha, scale 0 to 100, 0 no effect, 100 complete control
[23] = Flood (flooded paddy test), 250 g ai/ha, scale 0 to 100, 0 no effect, 100 complete control
[24] = Flood, 31 g ai/ha, scale 0 to 100

**Q.** For Cc1cc(-c2ccc(Cl)cc2)nn1-c1c(OC(=O)c2ccccc2)cnn(C)c1=O [Compound 48], which “Corn plant response rating” value (corn (Zea mays); postemergence, 0-100 scale) is on record?
**A.** 90

**Q.** And the “Plant response rating, Corn” value (corn (Zea mays); [12])?
**A.** 95

**Q.** What about the “Plant response rating, Corn” value (corn (Zea mays); [13]) of the same molecule?
**A.** 100

**Q.** What about the “Plant response rating, Corn” value (corn (Zea mays); [14]) of the same molecule?
**A.** 100

**Q.** What about the “Plant response rating, Corn” value (corn (Zea mays); [15]) of the same molecule?
**A.** 55

**Q.** What about the “Plant response rating, Corn” value (corn (Zea mays); [16]) of the same molecule?
**A.** 70

**Q.** What about the “Plant response rating, Corn” value (corn (Zea mays); [17]) of the same molecule?
**A.** 75

**Q.** And the “Corn plant response rating” value (corn (Zea mays); Preemergence, scale 0 to 100)?
**A.** 15

**Q.** What about the “Crabgrass, Large plant response rating” value ([1]; postemergence, 0-100 scale) of the same molecule?
**A.** 70

**Q.** And the “Plant response rating, Crabgrass, Large” value [1, 12]?
**A.** 85

**Q.** What about the “Plant response rating, Crabgrass, Large” value [1, 13] of the same molecule?
**A.** 90

**Q.** What about the “Plant response rating, Crabgrass, Large” value [1, 14] of the same molecule?
**A.** 100

**Q.** And the “Plant response rating, Crabgrass, Large” value [1, 15]?
**A.** 0

**Q.** What about the “Plant response rating, Crabgrass, Large” value [1, 16] of the same molecule?
**A.** 0

**Q.** What about the “Plant response rating, Crabgrass, Large” value [1, 17] of the same molecule?
**A.** 0

**Q.** What about the “Crabgrass, Large plant response rating” value ([1]; Preemergence, scale 0 to 100) of the same molecule?
**A.** 0

**Q.** And the “Plant response rating, Nightshade, E. B.” value [2, 18]?
**A.** 0

**Q.** What about the “Plant response rating, Nightshade, E. B.” value [2, 19] of the same molecule?
**A.** 0

**Q.** And the “Plant response rating, Nightshade, E. B.” value ([2]; 62 g ai/ha, scale 0 to 100)?
**A.** 20

**Q.** And the “Nightshade, E. B. plant response rating” value ([2]; 8 g ai/ha, scale 0 to 100)?
**A.** 0

**Q.** What about the “Pigweed plant response rating” value ([3]; postemergence, 0-100 scale) of the same molecule?
**A.** 0

**Q.** What about the “Plant response rating, Pigweed” value [3, 12] of the same molecule?
**A.** 0

**Q.** And the “Plant response rating, Pigweed” value [3, 13]?
**A.** 0

**Q.** What about the “Plant response rating, Pigweed” value [3, 14] of the same molecule?
**A.** 0

**Q.** And the “Plant response rating, Pigweed” value [3, 15]?
**A.** 0

**Q.** What about the “Plant response rating, Pigweed” value [3, 20] of the same molecule?
**A.** 0

**Q.** And the “Plant response rating, Pigweed” value [3, 17]?
**A.** 0

**Q.** And the “Pigweed plant response rating” value ([3]; Preemergence, scale 0 to 100)?
**A.** 0

**Q.** What about the “Cupgrass, Woolly plant response rating” value ([4]; postemergence, 0-100 scale) of the same molecule?
**A.** 75

**Q.** And the “Plant response rating, Cupgrass, Woolly” value [4, 12]?
**A.** 85

**Q.** What about the “Plant response rating, Cupgrass, Woolly” value [4, 13] of the same molecule?
**A.** 100

**Q.** What about the “Plant response rating, Cupgrass, Woolly” value [4, 14] of the same molecule?
**A.** 100

**Q.** What about the “Plant response rating, Cupgrass, Woolly” value [4, 15] of the same molecule?
**A.** 0

**Q.** What about the “Plant response rating, Cupgrass, Woolly” value [4, 16] of the same molecule?
**A.** 0

**Q.** And the “Plant response rating, Cupgrass, Woolly” value [4, 17]?
**A.** 0

**Q.** What about the “Cupgrass, Woolly plant response rating” value ([4]; Preemergence, scale 0 to 100) of the same molecule?
**A.** 0

**Q.** And the “Foxtail, Giant plant response rating” value ([5]; postemergence, 0-100 scale)?
**A.** 85

**Q.** What about the “Plant response rating, Foxtail, Giant” value [5, 12] of the same molecule?
**A.** 95

**Q.** And the “Plant response rating, Foxtail, Giant” value [5, 13]?
**A.** 100

**Q.** And the “Plant response rating, Foxtail, Giant” value [5, 14]?
**A.** 100

**Q.** What about the “Plant response rating, Foxtail, Giant” value [5, 15] of the same molecule?
**A.** 0

**Q.** What about the “Plant response rating, Foxtail, Giant” value [5, 16] of the same molecule?
**A.** 0

**Q.** What about the “Plant response rating, Foxtail, Giant” value [5, 17] of the same molecule?
**A.** 0

**Q.** What about the “Foxtail, Giant plant response rating” value ([5]; Preemergence, scale 0 to 100) of the same molecule?
**A.** 0

**Q.** What about the “Foxtail, Green plant response rating” value ([6]; postemergence, 0-100 scale) of the same molecule?
**A.** 70

**Q.** And the “Plant response rating, Foxtail, Green” value [6, 12]?
**A.** 98

**Q.** And the “Plant response rating, Foxtail, Green” value [6, 13]?
**A.** 100

**Q.** What about the “Plant response rating, Foxtail, Green” value [6, 14] of the same molecule?
**A.** 100

**Q.** What about the “Plant response rating, Foxtail, Green” value [6, 15] of the same molecule?
**A.** 80

**Q.** What about the “Plant response rating, Foxtail, Green” value [6, 16] of the same molecule?
**A.** 100

**Q.** And the “Plant response rating, Foxtail, Green” value [6, 17]?
**A.** 100

**Q.** What about the “Foxtail, Green plant response rating” value ([6]; Preemergence, scale 0 to 100) of the same molecule?
**A.** 30

**Q.** What about the “Oat, Wild plant response rating” value (wild oat (Avena fatua); postemergence, 0-100 scale) of the same molecule?
**A.** 80

**Q.** What about the “Plant response rating, Oat, Wild” value (wild oat (Avena fatua); [12]) of the same molecule?
**A.** 95

**Q.** What about the “Plant response rating, Oat, Wild” value (wild oat (Avena fatua); [13]) of the same molecule?
**A.** 98

**Q.** What about the “Plant response rating, Oat, Wild” value (wild oat (Avena fatua); [14]) of the same molecule?
**A.** 100

**Q.** What about the “Plant response rating, Oat, Wild” value (wild oat (Avena fatua); [15]) of the same molecule?
**A.** 5

**Q.** And the “Plant response rating, Oat, Wild” value (wild oat (Avena fatua); [20])?
**A.** 80

**Q.** What about the “Plant response rating, Oat, Wild” value (wild oat (Avena fatua); [17]) of the same molecule?
**A.** 85

**Q.** What about the “Oat, Wild plant response rating” value (wild oat (Avena fatua); Preemergence, scale 0 to 100) of the same molecule?
**A.** 0

**Q.** What about the “Plant response rating, Russian Thistle” value [7, 18] of the same molecule?
**A.** 0

**Q.** And the “Plant response rating, Russian Thistle” value [7, 19]?
**A.** 0

**Q.** And the “Plant response rating, Russian Thistle” value ([7]; 62 g ai/ha, scale 0 to 100)?
**A.** 0

**Q.** And the “Russian Thistle plant response rating” value ([7]; 8 g ai/ha, scale 0 to 100)?
**A.** 0

**Q.** And the “Bromegrass, Downy plant response rating” value ([8]; postemergence, 0-100 scale)?
**A.** 5

**Q.** What about the “Plant response rating, Bromegrass, Downy” value [8, 12] of the same molecule?
**A.** 50

**Q.** And the “Plant response rating, Bromegrass, Downy” value [8, 13]?
**A.** 60

**Q.** And the “Plant response rating, Bromegrass, Downy” value [8, 14]?
**A.** 90

**Q.** And the “Plant response rating, Bromegrass, Downy” value [8, 15]?
**A.** 0

**Q.** And the “Plant response rating, Bromegrass, Downy” value [8, 16]?
**A.** 70

**Q.** And the “Plant response rating, Bromegrass, Downy” value [8, 17]?
**A.** 80

**Q.** What about the “Bromegrass, Downy plant response rating” value ([8]; Preemergence, scale 0 to 100) of the same molecule?
**A.** 0

**Q.** What about the “Plant response rating, Sedge, Umbrella” value [9, 21] of the same molecule?
**A.** 0

**Q.** And the “Plant response rating, Sedge, Umbrella” value [9, 22]?
**A.** 0

**Q.** And the “Plant response rating, Sedge, Umbrella” value [9, 23]?
**A.** 50

**Q.** And the “Plant response rating, Sedge, Umbrella” value [9, 24]?
**A.** 0

**Q.** What about the “Plant response rating, Barnyardgrass” value [10, 21] of the same molecule?
**A.** 0

**Q.** What about the “Plant response rating, Barnyardgrass” value [10, 22] of the same molecule?
**A.** 0

**Q.** What about the “Plant response rating, Barnyardgrass” value [10, 23] of the same molecule?
**A.** 30

**Q.** What about the “Plant response rating, Barnyardgrass” value [10, 24] of the same molecule?
**A.** 0

**Q.** What about the “Plant response rating, Rice” value (rice (Oryza sativa); [21]) of the same molecule?
**A.** 0

**Q.** What about the “Plant response rating, Rice” value (rice (Oryza sativa); [22]) of the same molecule?
**A.** 0

**Q.** And the “Plant response rating, Rice” value (rice (Oryza sativa); [23])?
**A.** 0

**Q.** And the “Plant response rating, Rice” value (rice (Oryza sativa); [24])?
**A.** 0

**Q.** And the “Plant response rating, Ducksalad” value [11, 21]?
**A.** 0

**Q.** And the “Plant response rating, Ducksalad” value [11, 22]?
**A.** 0

**Q.** And the “Plant response rating, Ducksalad” value [11, 23]?
**A.** 30

**Q.** What about the “Plant response rating, Ducksalad” value [11, 24] of the same molecule?
**A.** 0
